The source made the active and inactive calls.
Experiments:
Format in all cases: functional, organism-based
Settings in all cases: Lung
[1] = tested on: Mus musculus; test: Antiinflammatory activity against ovalbumin-induced airway allergic C57BL/6 mouse model assessed as decrease of macrophages in bronchoalveolar lavage fluid at 20 ug/mL administered intranasally after 28 days ovalbumin challenge measured on day 32
[2] = tested on: Mus musculus; test: Antiinflammatory activity against ovalbumin-induced airway allergic C57BL/6 mouse model assessed as reduction of recruitment of eosinophils in bronchoalveolar lavage fluid at 20 ug/mL administered intranasally after 28 days ovalbumin challenge measured on day 32
[3] = tested on: Mus musculus; test: Antiinflammatory activity against ovalbumin-induced airway allergic C57BL/6 mouse model assessed as decrease of lymphocytes in bronchoalveolar lavage fluid at 20 ug/mL administered intranasally after 28 days ovalbumin challenge measured on day 32

Measured: Activity

CCCCCCCCCCCCCCCCCC(=O)OC[C@H](COP(=O)(O)OC(CO[C@H]1O[C@H](CO)[C@@H](O)[C@H](O)[C@@H]1O)CO[C@H]1O[C@H](CO)[C@@H](O)[C@H](O)[C@@H]1O)OC(=O)CCCCCCCCCCCCCCCCC
active: all assays above

Reference: ChEMBL document CHEMBL1641509, “A PIM₂ analogue suppresses allergic airway disease” (Bioorg Med Chem, 2011)
